Laboratory results: patent publication US20230357261A1, “ARYL HYDROCARBON RECEPTOR LIGANDS AND THEIR ANALOGUES FOR THE PREVENTION AND TREATMENT OF INFLAMMATORY DISORDERS” (The Johns Hopkins University, priority 2020, published 2023)
Entries after “also recorded” stand apart in the source; their conditions may differ. Each block holds one compound with its values, some of them ahead of it.

Key:
AHR [1] = assay: AHR activation in mouse ileal enteroids (Cyp1a1 qRT-PCR); format: cell-based; conditions: wildtype mouse enteroids, tested compound 40 uM, overnight
Procedure: (§1) Primary intestinal crypt cultures (enteroids) were generated from the ileum of neonatal (p7-p11) wild type and Ahr′ mice at as described, Neal et al., 2012, and maintained in Matrigel (Corning). The enteroids were digested and passed using TrypLE Express (Gibco) weekly, and used between passage 3 and 10 for all experiments. The enteroids were pre-treated with I3C ([…], 12 h), A18 (20 μM, 12 h) or human breast milk (100 μL/mL, Innovative Research, prepared by 5-minute-cenrifugation at 12,000 g and then filtration of supernatant through a 0.22-μm filter) and then treated with LPS (50 μg/mL) for 4 hours for further analysis.
(§2) Primary intestinal crypt cultures (enteroids) were generated from the ileum of neonatal (p7-p11) mice at as described, Neal et al., 2012, and maintained in Matrigel (Corning). The enteroids were digested and passed using TrypLE Express (Gibco) weekly, and used between passage 3 and 10 for all experiments. The enteroids were pre-treated with tested compound (40 uM, overnight) and then treated with LPS (50 μg/mL) for 6 hours for further analysis.
(§3) Total RNA was isolated using the RNeasy mini kit (Qiagen) and complementary DNA was synthesized from 0.5 μg RNA using QuantiTect Reverse Transcription kit (Qiagen) following the manufacturer's protocols. The mRNA quantification was performed on the Bio-Rad CFX96 Real-Time System (Bio-Rad) using iTaq™ universal SYBR® Green supermix (Bio-Rad) and the primers listed in Table 2. The relative mRNA expression levels were normalized against the expression of the housekeeping gene ribosomal protein lateral stalk subunit P0 (Rplp0).

TLR4 = TLR4 signaling in mouse ileal enteroids (LPS-induced Tnf-a qRT-PCR); format: cell-based; conditions: wildtype mouse enteroids; tested compound 40 uM overnight, then LPS 50 μg/mL 6 hours
Procedure: as §1, §2, §3

AHR [2] = assay: AHR activation (Cyp1a1) in ileum of mice in the NEC model (Example 3); format: in vivo; conditions: mouse NEC model; 20 mg/kg/day by oral gavage for 4 days
Text: (§4) Experimental NEC was induced in 7-day old mice as we have previously described, Good et al., 2015; Sodhi et al., 2018; Egan et al., 2016, by gavage feeding newborn mice with formula containing Similac Advance infant formula (Abbott Nutrition): Esbilac (PetAg) canine milk replacer, 2:1 ratio, which was supplemented with enteric bacteria made from a stock created from a specimen obtained from an infant with surgical NEC five times per day.
(§5) Additionally, the mice were subjected to hypoxia (5% 02-95% N2) for 10 min in a hypoxia chamber (Billups-Rothenberg) twice daily for 4 days. The compound #169, compound #243, compound #247 or compound #263 administered by oral gavage during the induction of NEC at the dose of 20 mg/kg body weight/day.
(§6) Age-matched breast milk-fed mouse pups were used as healthy controls. Evaluation of ileal histology by H&E staining and expression of pro-inflammatory cytokines by qRT-PCR at a fixed point in the terminal ileum 2-cm proximal to the cecum, were used to determine the disease severity.
as §3

mouse NEC model = assay: Experimental NEC in newborn mice (Example 3); format: in vivo; conditions: 20 mg/kg body weight/day for 4 days; for severity of NEC: 20 mg/kg/day
Text: as §4, §5, §6, §3

melting point: 153 to 155 °C
Structure (SMILES): COc1ccnc(CSc2nc3ccc(F)cc3[nH]2)c1C [compound 20, 5-fluoro-2-(((3-methyl-4-methoxypyridin-2-yl)methyl)thio)-1H-benzo[d]imidazole]

melting point: 193 to 194 °C
Structure (SMILES): Cc1ccc2nc(S(=O)(=O)Cc3nccc(OCC(F)(F)F)c3C)[nH]c2c1 [compound 25, 5-methyl-2-(((3-methyl-4-(2,2,2-trifluoroethoxy)pyridin-2-yl)methyl)sulfonyl)-1H-benzo[d]-imidazole]

melting point: 192 to 193 °C
Structure (SMILES): COc1ccnc(CS(=O)(=O)c2nc3cc(F)ccc3[nH]2)c1C [compound 26, 5-fluoro-2-(((3-methyl-4-methoxypyridin-2-yl)methyl)sulfonyl)-1H-benzo[d]-imidazole]

melting point: 177 to 178 °C
Structure (SMILES): CCOc1ccnc(CS(=O)(=O)c2nc3ccc(F)cc3[nH]2)c1C [compound 27, 5-fluoro-2-(((3-methyl-4-ethoxypyridin-2-yl)methyl)sulfonyl)-1H-benzo[d]-imidazole]

melting point: 155 to 157 °C
Structure (SMILES): Cc1c(Oc2ccccc2)ccnc1CS(=O)(=O)c1nc2ccc(F)cc2[nH]1 [compound 28, 5-fluoro-2-(((3-methyl-4-phenoxypyridin-2-yl)methyl)sulfonyl)-1H-benzo[d]-imidazole]

melting point: 185 to 188 °C
Structure (SMILES): Cc1c(OCc2ccccc2)ccnc1CS(=O)(=O)c1nc2ccc(F)cc2[nH]1 [compound 29, 5-fluoro-2-(((3-methyl-4-benzyloxypyridin-2-yl)methyl)sulfonyl)-1H-benzo[d]-imidazole]

The next lines start with the compound.

Structure (SMILES): c1ccc2[nH]c(CSc3ncnc4ccccc34)nc2c1
melting point: 198 to 200 °C (dec.)

Structure (SMILES): Cc1ccc2nc(SCc3nccc(OCC(F)(F)F)c3C)[nH]c2c1 [compound 18, 5-methyl-2-(((3-methyl-4-(2,2,2-trifluoroethoxy)pyridin-2-yl)methyl)thio)-1H-benzo[d]imidazole]
melting point: 153 to 155 °C

Structure (SMILES): Cc1c(OCC(F)(F)F)ccnc1CSc1nc2ccc(C#N)cc2[nH]1 [compound 19, 5-cyano-2-(((3-methyl-4-(2,2,2-trifluoroethoxy)pyridin-2-yl)methyl)thio)-1H-benzo[d]-imidazole]
melting point: 204 to 205 °C

Structure (SMILES): CCOc1ccnc(CSc2nc3ccc(F)cc3[nH]2)c1C [compound 21, 5-fluoro-2-(((3-methyl-4-ethoxypyridin-2-yl)methyl)thio)-1H-benzo[d]imidazole]
melting point: 102 to 104 °C

Structure (SMILES): Cc1c(Oc2ccccc2)ccnc1CSc1nc2ccc(F)cc2[nH]1 [compound 22, 5-fluoro-2-(((3-methyl-4-phenoxypyridin-2-yl)methyl)thio)-1H-benzo[d]imidazole]
melting point: 134 to 136 °C

Structure (SMILES): Cc1c(OCc2ccccc2)ccnc1CSc1nc2ccc(F)cc2[nH]1 [compound 23, 5-fluoro-2-(((3-methyl-4-benzyloxypyridin-2-yl)methyl)thio)-1H-benzo[d]-imidazole]
melting point: 175 to 177 °C

Structure (SMILES): Cc1ccc2nc([S+]([O-])Cc3nccc(OCC(F)(F)F)c3C)[nH]c2c1 (stereo not shown) [compound 24, 5-methyl-2-(((3-methyl-4-(2,2,2-trifluoroethoxy)pyridin-2-yl)methyl)sulfinyl)-1H-benzo[d]-imidazole]
melting point: > 133 °C (dec.)

Structure (SMILES): Cc1cc2c(=O)n(Cc3ccco3)c(SCc3nc4ccccc4[nH]3)nc2s1 [compound #169]
activation of AHR signaling in mouse enteroids (Cyp1a1, FIG. 15a) (AHR [1]): activated AHR
activation of AHR signaling in mouse enteroids (Cyp1a1, FIG. 15a) (AHR [1]; listed as #169): activated AHR signaling
inhibition of TLR4 signaling in mouse enteroids (Tnf-a induction by LPS, FIG. 15b, FIG. 19) (TLR4): significantly inhibited TLR4 signaling
expression of Cyp1a1 in vivo (ileum) (AHR [2]): did not induce the expression of Cyp1a1
histological injury (H&E, ileum) (mouse NEC model): reduced histological injury
severity of NEC (mouse NEC model): did not reduce the severity of NEC; also recorded: didn't not reduce the severity of NEC

Structure (SMILES): c1ccc2[nH]c(CSc3ncnc4ccccc34)nc2c1 [compound #243]
activation of AHR signaling in mouse enteroids (Cyp1a1, FIG. 15a) (AHR [1]): activated AHR signaling
inhibition of TLR4 signaling in mouse enteroids (Tnf-a induction by LPS, FIG. 15b, FIG. 19) (TLR4): significantly inhibited TLR4 signaling
expression of Cyp1a1 in vivo (ileum) (AHR [2]): did not induce the expression of Cyp1a1
histological injury (H&E, ileum) (mouse NEC model): reduced histological injury
severity of NEC (mouse NEC model): did not reduce the severity of NEC; also recorded: didn't not reduce the severity of NEC

Structure (SMILES): c1ccc2[nH]c(COc3ncnc4ccccc34)nc2c1 [compound #247]
activation of AHR signaling in mouse enteroids (Cyp1a1, FIG. 15a) (AHR [1]): activated AHR signaling
inhibition of TLR4 signaling in mouse enteroids (Tnf-a induction by LPS, FIG. 15b, FIG. 19) (TLR4): significantly inhibited TLR4 signaling
expression of Cyp1a1 in vivo (ileum) (AHR [2]): significantly induced the expression of Cyp1a1
histological injury (H&E, ileum) (mouse NEC model): reduced histological injury
severity of NEC (mouse NEC model): did not reduce the severity of NEC; also recorded: didn't not reduce the severity of NEC

Structure (SMILES): N#C/C(=C(/N)c1ncnc2ccccc12)c1nc2ccccc2[nH]1 [compound #263]
inhibition of TLR4 signaling in mouse enteroids (Tnf-a induction by LPS, FIG. 15b, FIG. 19) (TLR4): significantly inhibited the TLR4 signaling
expression of Cyp1a1 in vivo (ileum) (AHR [2]): significantly induced the expression of Cyp1a1
expression of IL-1b, IL-6, Tnf-a and Lcn2 in the intestinal epithelium (mouse NEC model): reduced expression
histological injury (H&E, ileum) (mouse NEC model): reduced histological injury
severity of NEC (mouse NEC model): significantly reduced the severity of experimental NEC; also recorded: protects against experimental NEC
